Measurements taken from PubChem BioAssay (NCI).
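All cell lines were grown in 96-well plates and treated with compound for 48 hours. The concentration for full growth arrest is given as TGI.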

Legend:
Assay in all cases: NCI-60 cell line screen, 48 h
[1] = system: OVCAR-8 ovarian
[2] = system: SF-268 CNS
[3] = system: UACC-257 melanoma
[4] = system: HCC-2998 colon
[5] = system: A498 renal
[6] = system: HOP-92 NSCLC
[7] = system: EKVX NSCLC
[8] = system: COLO 205 colon
[9] = system: RPMI-8226 leukemia

SMILES | TGI [1] [µM] | TGI [2] [µM] | TGI [3] [µM] | TGI [4] [µM] | TGI [5] [µM] | TGI [6] [µM] | TGI [7] [µM] | TGI [8] [µM] | TGI [9] [µM]
CC(C)(C)c1cc2c(O)c3cccc4c(=O)c5cccc6c5-c(c34)c2c(c1)c6=O | > 100 | > 100 | > 100 | 0.0657 | > 100 | 96.5 | > 100 | > 100 | –
O=C(Nc1ccccc1-c1nn(C(=S)Nc2ccccc2)c(=S)n(C(=S)Nc2ccccc2)c1=O)C(F)(F)F | > 90.3 | > 100 | 31.4 | > 72.5 | > 76.6 | 57.9 | 98.2 | 44.4 | 50.2
CN(C)CCn1c2c3ccccc3ccc2c2oc(=O)c3ccccc3c21 | – | 7.86 | 16.4 | – | – | 17.6 | 36.4 | > 100 | 43.2
CCOC(=O)C1=C(C(=O)OCC)C2c3ccccc3C=CN2C(C(=O)OCC)=C(SC)S1 (stereo unspecified) | > 100 | > 100 | > 100 | > 100 | – | – | > 100 | > 100 | > 100
c1ccc(NCn2cnc3ccccc32)cc1 | > 100 | > 100 | > 100 | – | > 100 | – | > 100 | > 100 | 71.6
O=S(=O)(N/N=C/c1cccc(/C=N/NS(=O)(=O)c2ccccc2)c1)c1ccccc1 | > 100 | > 100 | > 100 | > 100 | > 100 | 97.2 | > 100 | > 100 | > 100
